Measurements published in ChEMBL document CHEMBL1201862, “PubChem BioAssay data set” (2004).
Calls of active or inactive are those of the source.

Experiments:
Hexokinase HKDC1 = target: T1, Hexokinase HKDC1 (Homo sapiens, UniProt Q2TB90); assay: HKDC1 hexokinase inhibitors, dose response, biochemical, W721R variant (AID 504729); format: functional
T1 sequence (Q2TB90 whole entry): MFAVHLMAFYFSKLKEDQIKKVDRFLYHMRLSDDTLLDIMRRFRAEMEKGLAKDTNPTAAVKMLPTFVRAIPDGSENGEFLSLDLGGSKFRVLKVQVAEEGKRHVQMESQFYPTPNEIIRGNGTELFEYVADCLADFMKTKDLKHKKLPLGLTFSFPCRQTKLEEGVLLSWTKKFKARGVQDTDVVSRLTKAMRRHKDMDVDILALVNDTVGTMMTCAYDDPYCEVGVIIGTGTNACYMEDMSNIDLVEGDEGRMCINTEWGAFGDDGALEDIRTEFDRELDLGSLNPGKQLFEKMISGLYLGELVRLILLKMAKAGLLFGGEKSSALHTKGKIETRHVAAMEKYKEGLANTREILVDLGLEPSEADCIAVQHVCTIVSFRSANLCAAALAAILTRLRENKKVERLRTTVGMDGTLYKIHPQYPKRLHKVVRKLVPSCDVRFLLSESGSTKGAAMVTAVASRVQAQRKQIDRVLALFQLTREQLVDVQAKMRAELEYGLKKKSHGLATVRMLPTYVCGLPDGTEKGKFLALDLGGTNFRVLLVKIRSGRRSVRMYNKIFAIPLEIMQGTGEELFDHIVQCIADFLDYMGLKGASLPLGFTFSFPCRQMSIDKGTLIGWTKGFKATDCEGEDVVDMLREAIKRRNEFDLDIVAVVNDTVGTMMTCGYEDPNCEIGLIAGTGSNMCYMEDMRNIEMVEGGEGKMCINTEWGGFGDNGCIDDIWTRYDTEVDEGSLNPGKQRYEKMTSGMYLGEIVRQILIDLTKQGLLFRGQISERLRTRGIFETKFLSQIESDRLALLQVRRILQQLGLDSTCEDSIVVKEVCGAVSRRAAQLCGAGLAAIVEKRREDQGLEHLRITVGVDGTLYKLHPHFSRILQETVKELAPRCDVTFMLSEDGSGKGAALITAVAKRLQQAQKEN

Estrogen receptor = target: T2, Estrogen receptor (Homo sapiens, UniProt P03372);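 also: potency for inhibiting coactivator peptide recruitment to the receptor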
T2 sequence (P03372 whole entry): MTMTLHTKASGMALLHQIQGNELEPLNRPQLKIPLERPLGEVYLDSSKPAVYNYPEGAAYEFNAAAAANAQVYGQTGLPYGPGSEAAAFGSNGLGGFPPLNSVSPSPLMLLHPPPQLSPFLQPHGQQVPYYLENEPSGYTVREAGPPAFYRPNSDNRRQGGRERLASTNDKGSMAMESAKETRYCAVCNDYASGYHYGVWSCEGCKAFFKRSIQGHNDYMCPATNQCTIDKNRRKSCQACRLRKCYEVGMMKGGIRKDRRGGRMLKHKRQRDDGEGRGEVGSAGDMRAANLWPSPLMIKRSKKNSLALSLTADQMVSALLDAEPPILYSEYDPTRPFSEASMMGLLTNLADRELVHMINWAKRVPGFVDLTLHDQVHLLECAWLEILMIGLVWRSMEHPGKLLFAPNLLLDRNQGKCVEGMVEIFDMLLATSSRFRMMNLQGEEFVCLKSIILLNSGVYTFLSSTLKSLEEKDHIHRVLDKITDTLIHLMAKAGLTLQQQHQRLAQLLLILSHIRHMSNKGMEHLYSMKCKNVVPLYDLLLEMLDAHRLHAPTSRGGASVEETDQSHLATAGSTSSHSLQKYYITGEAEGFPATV

Estrogen receptor beta = Estrogen receptor beta (Homo sapiens, UniProt Q92731);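 also: recombinant ER-beta bound to coactivator SRC1 peptide in presence of estradiol agonist; inhibitors block coactivator peptide binding and lower the FRET signal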
Chain of Estrogen receptor beta (Q92731 whole entry): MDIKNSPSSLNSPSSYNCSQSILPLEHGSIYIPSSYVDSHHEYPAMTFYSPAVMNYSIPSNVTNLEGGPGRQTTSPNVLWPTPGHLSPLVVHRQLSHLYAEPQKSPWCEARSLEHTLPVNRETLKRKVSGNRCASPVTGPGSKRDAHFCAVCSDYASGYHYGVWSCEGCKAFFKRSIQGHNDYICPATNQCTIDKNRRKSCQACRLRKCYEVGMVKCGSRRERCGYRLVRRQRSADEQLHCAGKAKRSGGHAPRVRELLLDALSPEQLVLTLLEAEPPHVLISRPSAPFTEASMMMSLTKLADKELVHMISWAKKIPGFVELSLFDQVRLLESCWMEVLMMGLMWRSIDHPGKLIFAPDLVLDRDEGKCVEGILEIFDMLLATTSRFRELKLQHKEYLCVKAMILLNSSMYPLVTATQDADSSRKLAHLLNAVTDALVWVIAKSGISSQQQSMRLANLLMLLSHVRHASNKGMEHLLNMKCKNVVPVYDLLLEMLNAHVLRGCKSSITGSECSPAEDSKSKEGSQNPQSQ

[1] = THP-1 cell cytotoxicity, dose response, cytotoxicity control for non-replicating M. tuberculosis project (AID 489025); format: functional
[2] = HepG2 cell cytotoxicity, dose response, cytotoxicity control for non-replicating M. tuberculosis project (AID 489018); format: functional; conditions: Mycobacterium tuberculosis
cells = format: functional
[3] = Vero E6 cell cytotoxicity, dose response, cytotoxicity control for non-replicating M. tuberculosis project, secondary assay (AID 492998); format: functional, VeroE6; conditions: Vero C1008
[4] = growth suppression of PTEN-null colon cells, dose response, cell-based, HCT116 PTEN knockout (AID 1047); format: functional;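 also: HCT116 colon tumor cells with PTEN knocked out; cells exposed to compound for 60 hours before readout; potency for loss of cell viability measured by luminescence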
[5] = growth suppression of beta-catenin-knockout colon cells, dose response, cell-based, HCT116, human colon tumor (AID 1045); format: functional;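 also: HCT116 colon tumor cells with beta catenin knocked out; cells exposed to compound for 60 hours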
[6] = A cytotoxicity screen of small molecule inhibitors of the PhoP region in Salmonella typhi identified in the primary screen. [Related pubchem assays: 1850, 1864, 1985 ]; format: functional
[7] = target: T3, Alkaline phosphatase, tissue-nonspecific isozyme (Homo sapiens, UniProt P05186); assay: human TNAP enzyme inhibitors, SAR follow-up, biochemical, luminescent, dose response (AID 1056)
T3 sequence (P05186 whole entry): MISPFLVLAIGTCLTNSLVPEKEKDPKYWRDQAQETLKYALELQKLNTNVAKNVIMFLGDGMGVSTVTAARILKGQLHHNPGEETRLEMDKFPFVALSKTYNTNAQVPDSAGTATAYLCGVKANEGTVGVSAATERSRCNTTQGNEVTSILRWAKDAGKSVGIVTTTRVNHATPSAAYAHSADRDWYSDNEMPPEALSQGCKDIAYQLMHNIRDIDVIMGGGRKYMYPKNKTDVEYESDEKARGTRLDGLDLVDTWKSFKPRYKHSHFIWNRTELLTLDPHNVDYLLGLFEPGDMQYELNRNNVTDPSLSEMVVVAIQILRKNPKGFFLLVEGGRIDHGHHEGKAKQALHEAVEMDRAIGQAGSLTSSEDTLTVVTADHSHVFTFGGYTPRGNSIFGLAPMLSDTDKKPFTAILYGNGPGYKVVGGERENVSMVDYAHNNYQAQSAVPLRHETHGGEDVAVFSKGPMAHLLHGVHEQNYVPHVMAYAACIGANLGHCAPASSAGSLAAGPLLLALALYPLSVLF

[8] = target: Glyceraldehyde-3-phosphate dehydrogenase (Homo sapiens, UniProt P04406)
Chain of Glyceraldehyde-3-phosphate dehydrogenase (P04406 whole entry): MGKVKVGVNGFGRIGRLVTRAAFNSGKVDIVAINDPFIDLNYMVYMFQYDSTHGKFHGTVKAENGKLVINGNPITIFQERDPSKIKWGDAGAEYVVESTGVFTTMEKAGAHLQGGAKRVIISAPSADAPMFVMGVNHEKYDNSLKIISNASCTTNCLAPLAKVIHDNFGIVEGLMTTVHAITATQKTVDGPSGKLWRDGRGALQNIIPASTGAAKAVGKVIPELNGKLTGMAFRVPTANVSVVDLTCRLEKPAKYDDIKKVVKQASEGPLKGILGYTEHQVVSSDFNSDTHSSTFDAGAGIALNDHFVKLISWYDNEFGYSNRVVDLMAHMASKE

[9] = target: Alkaline phosphatase, placental type (Homo sapiens, UniProt P05187); assay: PLAP enzyme inhibitors, confirmation, biochemical, luminescence (AID 1512); format: functional
Chain of Alkaline phosphatase, placental type (P05187 whole entry): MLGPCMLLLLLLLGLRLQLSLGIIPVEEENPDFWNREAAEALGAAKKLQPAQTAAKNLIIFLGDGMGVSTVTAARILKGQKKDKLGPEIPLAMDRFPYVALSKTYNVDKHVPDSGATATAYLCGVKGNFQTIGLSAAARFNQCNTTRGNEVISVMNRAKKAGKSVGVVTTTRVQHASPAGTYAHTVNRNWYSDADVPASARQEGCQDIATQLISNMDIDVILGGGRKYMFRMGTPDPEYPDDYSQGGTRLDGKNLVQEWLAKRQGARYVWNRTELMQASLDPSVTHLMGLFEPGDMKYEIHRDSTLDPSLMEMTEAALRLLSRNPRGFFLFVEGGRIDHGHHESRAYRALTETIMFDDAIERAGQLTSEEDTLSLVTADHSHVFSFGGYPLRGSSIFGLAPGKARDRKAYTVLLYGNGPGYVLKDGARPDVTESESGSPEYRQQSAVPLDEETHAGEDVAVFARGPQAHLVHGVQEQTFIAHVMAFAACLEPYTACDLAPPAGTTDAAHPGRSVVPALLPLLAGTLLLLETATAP

[10] = target: T4, Replicative DNA helicase DnaB (Mycobacterium tuberculosis, UniProt P9WMR3); assay: DnaB intein splicing inhibitors, dose response, biochemical, cell-free fluorescence (AID 449749); format: functional
T4 sequence (P9WMR3 whole entry): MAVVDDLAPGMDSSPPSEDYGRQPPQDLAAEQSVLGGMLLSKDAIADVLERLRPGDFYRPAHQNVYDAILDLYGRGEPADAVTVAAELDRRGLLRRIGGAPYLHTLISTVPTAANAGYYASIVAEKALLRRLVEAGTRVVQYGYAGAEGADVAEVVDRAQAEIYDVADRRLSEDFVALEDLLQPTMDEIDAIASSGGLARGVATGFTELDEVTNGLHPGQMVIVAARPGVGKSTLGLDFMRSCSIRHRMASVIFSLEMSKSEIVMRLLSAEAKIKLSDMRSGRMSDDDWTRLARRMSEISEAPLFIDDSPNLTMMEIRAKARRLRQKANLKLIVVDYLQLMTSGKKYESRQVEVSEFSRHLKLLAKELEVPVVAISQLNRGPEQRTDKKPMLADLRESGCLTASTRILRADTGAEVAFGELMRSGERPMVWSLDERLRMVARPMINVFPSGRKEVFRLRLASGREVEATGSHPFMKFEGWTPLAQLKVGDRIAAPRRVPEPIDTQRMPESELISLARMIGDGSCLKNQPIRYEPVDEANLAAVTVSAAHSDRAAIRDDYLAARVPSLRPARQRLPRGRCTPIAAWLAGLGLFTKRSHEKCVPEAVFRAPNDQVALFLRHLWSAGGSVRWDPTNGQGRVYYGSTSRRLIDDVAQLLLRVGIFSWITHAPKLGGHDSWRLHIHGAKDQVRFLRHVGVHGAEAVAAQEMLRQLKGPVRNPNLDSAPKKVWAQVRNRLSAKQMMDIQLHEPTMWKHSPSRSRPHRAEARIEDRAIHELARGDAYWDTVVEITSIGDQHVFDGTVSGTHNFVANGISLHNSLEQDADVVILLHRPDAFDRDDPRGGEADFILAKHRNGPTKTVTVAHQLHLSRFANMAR

Protein RecA = target: T5, Protein RecA (Mycobacterium tuberculosis, UniProt P9WHJ3); assay: Fluorescence Cell-Free Homogeneous Dose Retest to Identify Inhibitors of RecA-Intein Splicing Activity. [Related pubchem assays (depositor defined):AID2097, AID2223, AID489010, AID492950]; format: functional
T5 sequence (P9WHJ3 whole entry): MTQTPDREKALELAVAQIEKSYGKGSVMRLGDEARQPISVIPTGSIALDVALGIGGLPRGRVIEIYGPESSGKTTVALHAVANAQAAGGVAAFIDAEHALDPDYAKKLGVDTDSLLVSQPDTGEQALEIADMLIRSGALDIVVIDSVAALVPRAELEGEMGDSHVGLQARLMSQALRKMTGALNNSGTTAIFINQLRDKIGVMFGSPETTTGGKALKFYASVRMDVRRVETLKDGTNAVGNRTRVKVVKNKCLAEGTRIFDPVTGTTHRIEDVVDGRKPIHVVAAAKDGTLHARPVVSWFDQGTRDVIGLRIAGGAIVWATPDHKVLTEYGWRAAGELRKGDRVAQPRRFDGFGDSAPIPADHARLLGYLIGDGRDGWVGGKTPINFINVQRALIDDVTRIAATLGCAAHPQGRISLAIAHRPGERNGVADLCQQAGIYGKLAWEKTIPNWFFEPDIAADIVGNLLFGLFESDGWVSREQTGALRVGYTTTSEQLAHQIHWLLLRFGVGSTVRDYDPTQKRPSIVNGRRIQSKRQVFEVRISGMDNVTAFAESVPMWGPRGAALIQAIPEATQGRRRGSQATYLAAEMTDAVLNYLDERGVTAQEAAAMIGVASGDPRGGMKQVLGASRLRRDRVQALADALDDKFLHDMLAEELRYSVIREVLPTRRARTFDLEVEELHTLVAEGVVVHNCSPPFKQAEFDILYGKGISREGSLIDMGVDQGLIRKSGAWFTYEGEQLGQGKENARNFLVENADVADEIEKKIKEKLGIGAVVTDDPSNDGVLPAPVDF

[11] = target: G2/mitotic-specific cyclin-B1 (Homo sapiens, UniProt P14635); assay: G2/M cell cycle arrest in HeLa, late-stage follow-up, mechanism study for Wee1 degradation inhibitor project, FACS, panel member Cyclin B Degradation (AID 2088)
Chain of G2/mitotic-specific cyclin-B1 (P14635 whole entry): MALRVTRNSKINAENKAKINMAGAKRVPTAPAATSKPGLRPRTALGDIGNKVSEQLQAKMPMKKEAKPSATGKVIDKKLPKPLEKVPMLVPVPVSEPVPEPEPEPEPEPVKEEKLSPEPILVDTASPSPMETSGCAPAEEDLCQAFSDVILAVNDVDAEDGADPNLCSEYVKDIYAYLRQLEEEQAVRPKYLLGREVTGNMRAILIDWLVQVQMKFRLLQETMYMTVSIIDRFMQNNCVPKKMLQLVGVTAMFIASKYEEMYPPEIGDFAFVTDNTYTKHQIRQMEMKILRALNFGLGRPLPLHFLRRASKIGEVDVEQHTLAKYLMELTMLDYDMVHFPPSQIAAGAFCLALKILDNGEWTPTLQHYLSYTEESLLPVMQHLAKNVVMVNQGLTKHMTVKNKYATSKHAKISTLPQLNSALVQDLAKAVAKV

Wee1-like protein kinase = Wee1-like protein kinase (Homo sapiens, UniProt P30291); assay: G2/M cell cycle arrest in HeLa, late-stage follow-up, mechanism study for Wee1 degradation inhibitor project, FACS, panel member Wee1 Degradation (AID 2088)
Chain of Wee1-like protein kinase (P30291 whole entry): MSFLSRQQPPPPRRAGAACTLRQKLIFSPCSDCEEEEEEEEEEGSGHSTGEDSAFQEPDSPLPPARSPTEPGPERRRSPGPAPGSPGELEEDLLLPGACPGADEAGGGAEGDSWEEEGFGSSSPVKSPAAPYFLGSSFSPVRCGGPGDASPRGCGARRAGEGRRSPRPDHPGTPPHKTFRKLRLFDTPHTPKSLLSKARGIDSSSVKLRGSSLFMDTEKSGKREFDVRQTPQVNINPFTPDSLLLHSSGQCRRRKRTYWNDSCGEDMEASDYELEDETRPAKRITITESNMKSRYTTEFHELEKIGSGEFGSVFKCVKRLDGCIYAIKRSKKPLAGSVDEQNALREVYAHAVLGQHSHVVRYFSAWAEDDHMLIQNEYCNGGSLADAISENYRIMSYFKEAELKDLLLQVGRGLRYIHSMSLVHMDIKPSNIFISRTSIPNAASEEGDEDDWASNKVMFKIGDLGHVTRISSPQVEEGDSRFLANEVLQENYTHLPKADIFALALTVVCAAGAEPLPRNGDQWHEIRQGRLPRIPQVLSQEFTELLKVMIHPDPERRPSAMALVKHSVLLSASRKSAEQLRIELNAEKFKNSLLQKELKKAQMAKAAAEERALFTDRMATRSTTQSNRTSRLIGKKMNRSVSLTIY

## Cc1nc2c(c(=O)c3ccccc3n2C)c(=O)n1-c1ccc(F)cc1
Hexokinase HKDC1
  IC50: 8.25 µM (active)

## CCOC(=O)c1c(C)oc2c1c(C(c1cccnc1)N1CCCCC1)c(O)c1ccccc12 (stereo not drawn)
Estrogen receptor
  IC50: > 50 µM (not active)
Estrogen receptor beta
  IC50: > 50 µM (not active)

## CCOc1cc(CNC(C)(C)CO)cc(Br)c1OCc1ccc(Cl)cc1Cl
[1]
  CC50: 13.4 µM (active)
[2]
  CC50: 13.7 µM (active)
cells
  IC50: 10.5 µM (active)
[3]
  CC50: 7.44 µM (active)
[4]
  EC50: 7.54 µM (active)
[5]
  EC50: 6.52 µM (active)

## COc1ccc2nc(NC(=O)C3CC(=O)N(c4ccccc4)C3)sc2c1 (stereo not drawn)
[6]
  EC50: > 50 µM (active)

## COc1ccccc1-c1nnc(SC)[nH]1
[7]
  IC50: 7.95 µM (active)
[8]
  IC50: > 100 µM (not active)
[9]
  IC50: > 100 µM (inactive)

## CN1CCc2nc(SCC(=O)Nc3ccc(F)cc3)c(C#N)cc2C1
[10]
  AC50: > 380 µM (inactive)
Estrogen receptor
  IC50: > 50 µM (not active)
Protein RecA
  EC50: 38 µM (active)

## Cc1ccc(NC(=O)OCc2cccs2)cc1
[6]
  EC50: > 50 µM (active)

## OCCSc1n[nH]c(-c2ccccc2)n1
[7]
  IC50: 16.2 µM (active)
[8]
  IC50: > 100 µM (not active)
[9]
  IC50: > 100 µM (inactive)

## Cc1cc(C)n2cc(CSc3nnc(-c4ccccc4)c(-c4ccccc4)n3)nc2n1
Hexokinase HKDC1
  IC50: 12.5 µM (active)

## [O-][n+]1onc2c3cc(-c4ccccc4)[nH]c3ccc21
[11]
  EC50: > 55.7 µM (inactive)
Wee1-like protein kinase
  EC50: > 6.19 µM (active)

## Cc1cc(O)nc(-n2nc(C)cc2NC(=O)Cc2ccccc2)n1
[11]
  EC50: > 49.7 µM (inactive)
Wee1-like protein kinase
  EC50: > 49.7 µM (inactive)

## Cc1cc(O)nc(-n2nc(C)cc2NC(=O)c2cccc(Cl)c2)n1
[11]
  EC50: > 49.7 µM (inactive)
Wee1-like protein kinase
  EC50: > 49.7 µM (inactive)

## CC1(C)N=C(N)N=C(Nc2cccc(Br)c2)N1
[6]
  EC50: > 50 µM (active)
